Experiment: xn = mol fraction of the nth substance listed

CCCC[n+]1ccn(C)c1.O=S(=O)([N-]S(=O)(=O)C(F)(F)F)C(F)(F)F + CCCCOC(C)=O
298.15 K, 100 kPa, x2 = 0
Conditions	electrical conductivity [S/m]	viscosity [mPa·s]
–	0.39	50.2

CCCCC[P+](CC)(CC)CC.O=S(=O)([N-]S(=O)(=O)C(F)(F)F)C(F)(F)F + CCCCC[N+](CC)(CC)CC.O=S(=O)([N-]S(=O)(=O)C(F)(F)F)C(F)(F)F
101.3 kPa, x2 = 0
Conditions	viscosity [mPa·s]
283.15 K	203
323.15 K	30.5

O=C1CCCCCO1 + CCCC[n+]1ccn(C)c1.O=S(=O)([N-]S(=O)(=O)C(F)(F)F)C(F)(F)F
electrical conductivity [S/m], 100 kPa, frequency 0.01 MHz
Conditions	293.15 K	298.15 K	303.15 K	308.15 K	313.15 K	318.15 K	323.15 K
x2 = 0.05	0.137	0.15	0.162	0.175	0.188	0.201	0.209
x2 = 0.1002	0.269	0.294	0.319	0.338	0.364	0.393	0.421
x2 = 0.1505	0.378	0.414	0.454	0.485	0.521	0.565	0.605
x2 = 0.1985	0.504	0.548	0.598	0.649	0.706	0.772	0.847
x2 = 0.3001	0.589	0.647	0.715	0.779	0.855	0.943	1.03
x2 = 0.3987	0.567	0.64	0.721	0.803	0.894	0.983	1.08
x2 = 0.4903	0.526	0.594	0.674	0.766	0.856	0.955	1.05
x2 = 0.6309	0.451	0.523	0.607	0.688	0.774	0.872	0.969
x2 = 0.6988	0.418	0.489	0.564	0.645	0.73	0.829	0.928
x2 = 0.8042	0.374	0.441	0.515	0.598	0.689	0.783	0.885
x2 = 0.883	0.356	0.417	0.489	0.573	0.665	0.759	0.862

CC#N + CCCC[N+]1(C)CCCC1.O=S(=O)([O-])C(F)(F)F
101 kPa, x1 = 1
Conditions	viscosity [mPa·s]
288.15 K	0.371
293.15 K	0.355
298.15 K	0.337

CCOC(=O)OCC + CCCC[N+]1(C)CCCC1.O=S(=O)([N-]S(=O)(=O)C(F)(F)F)C(F)(F)F
Conditions	viscosity [mPa·s]
323.15 K, 100 kPa, x2 = 0	0.54

CC[n+]1ccn(C)c1.O=S(=O)([O-])O + OCCO
100 kPa
Conditions	viscosity [mPa·s]
303.15 K, x1 = 0.125	15
303.15 K, x1 = 0.5	76
308.15 K, x1 = 0.25	24
313.15 K, x1 = 0.143	12
313.15 K, x1 = 0.33	30
318.15 K, x1 = 0.167	12
323.15 K, x1 = 0.33	21

CCCC[n+]1cccc(C)c1.O=S(=O)([N-]S(=O)(=O)C(F)(F)F)C(F)(F)F + CO
298.15 K, 101.3 kPa
Conditions	electrical conductivity [S/m]
x2 = 0.1004	0.338
x2 = 0.7793	1.68
x2 = 0.9417	2.04
x2 = 0.9589	1.83

CCCC[n+]1ccn(C)c1.F[P-](F)(F)(F)(F)F + C1CCOC1
Conditions	viscosity [mPa·s]
298.15 K, 101 kPa, x2 = 0.195	91

CN(C)C=O + CC[n+]1ccn(C)c1.F[B-](F)(F)F
101 kPa, x1 = 1
Conditions	viscosity [mPa·s]
313.15 K	0.667
333.15 K	0.541

CCCC[n+]1ccccc1.[Cl-] + CC[n+]1ccccc1.[Br-]
101 kPa
Conditions	viscosity [mPa·s]
388.1 K, x2 = 0.484	30
388.1 K, x2 = 0.694	23.1
393.1 K, x2 = 0.64	21.6
393.1 K, x2 = 0.797	18.11
403.1 K, x2 = 0.408	21.2
403.1 K, x2 = 0.604	17.39
408.1 K, x2 = 0.64	14.86
408.1 K, x2 = 0.797	12.97
413.1 K, x2 = 0.193	19.5
413.1 K, x2 = 0.64	13.22
413.1 K, x2 = 0.694	12.73
413.1 K, x2 = 0.797	11.67
418.1 K, x2 = 0.104	18.3
418.1 K, x2 = 0.64	11.81
418.1 K, x2 = 0.694	11.42
423.1 K, x2 = 0.313	13.73
423.1 K, x2 = 0.797	9.52
423.1 K, x2 = 0.894	8.8
428.1 K, x2 = 0.313	12.22
428.1 K, x2 = 0.604	9.82
428.1 K, x2 = 0.694	9.28
433.1 K, x2 = 0.484	9.72
433.1 K, x2 = 0.64	8.61
438.1 K, x2 = 0.604	8.04
438.1 K, x2 = 0.894	6.68
443.1 K, x2 = 0.64	7.11
443.1 K, x2 = 0.797	6.56

CCCC[n+]1ccn(C)c1.F[P-](F)(F)(F)(F)F + CC#N
298.15 K, 101 kPa
Conditions	electrical conductivity [S/m]	viscosity [mPa·s]
x2 = 0	0.157	260
x2 = 0.099	0.245	153
x2 = 0.1938	0.374	93
x2 = 0.1945	–	86
x2 = 0.2936	0.552	53.6
x2 = 0.3885	0.84	31.3
x2 = 0.4978	1.3	16.2
x2 = 0.5896	1.84	8.8
x2 = 0.6994	2.71	4.18
x2 = 0.7855	3.46	2.27
x2 = 0.846	3.93	1.48
x2 = 0.8918	4.18	1.08

CCCC[n+]1ccn(C)c1.O=S(=O)([N-]S(=O)(=O)C(F)(F)F)C(F)(F)F + CC(=O)[O-].CCCC[n+]1ccn(C)c1
101 kPa
Conditions	electrical conductivity, 313.15 K [S/m]	viscosity, 298.15 K [mPa·s]	viscosity, 313.15 K [mPa·s]	viscosity, 353.15 K [mPa·s]
x1 = 1	0.683	–	28.5	–
x2 = 0	–	50.3	–	9.52

CCCC[n+]1ccn(C)c1.[O-][Cl+3]([O-])([O-])[O-] + CCO
viscosity [mPa·s], 101 kPa
Conditions	x2 = 0.592	x2 = 0.637	x2 = 0.79	x2 = 0.86
303.15 K	–	8.7	4	3.6
313.15 K	7.4	6.7	–	–

CCCC[N+]1(C)CCCC1.F[P-](F)(F)(F)(F)F + CCCC[n+]1cccc(C)c1.F[P-](F)(F)(F)(F)F
101.3 kPa
Conditions	viscosity [mPa·s]
308.15 K, x2 = 0.4	535
313.15 K, x2 = 0.4	390
318.15 K, x2 = 0.4	290
318.15 K, x2 = 0.5	262
328.15 K, x2 = 0.4	170
328.15 K, x2 = 0.7	123
328.15 K, x2 = 0.9	102
333.15 K, x2 = 0.6	108
338.15 K, x2 = 0.5	96
343.15 K, x2 = 0.2	110
343.15 K, x2 = 0.4	86
343.15 K, x2 = 0.6	70
348.15 K, x2 = 0.6	57
353.15 K, x2 = 0.4	58
358.15 K, x2 = 0.2	61
358.15 K, x2 = 0.4	48
363.15 K, x2 = 0.5	37
363.15 K, x2 = 0.6	34

From the CheMixHub ionic liquid set
